Assay results as given in ChEMBL document CHEMBL1134758, “New probes of the agonist binding site of metabotropic glutamate receptors” (Bioorg Med Chem Lett, 2001).

What was measured:
[1] = molecular target: Metabotropic glutamate receptor 2 (Rattus norvegicus) (UniProt P31421); assay: (§1) Maximal effect obtained with 1 mM of the drug expressed as percent of maxiaml effect of glutamate in rat at mGlu2 receptor expressed in HEK293 cells; format: cell-based
[2] = molecular target: T1, Metabotropic glutamate receptor 8 (Rattus norvegicus, UniProt P70579); assay: Agonist activity in rat at mGlu8a receptor expressed in HEK293 cells; format: functional, cell-based
[3] = molecular target: Metabotropic glutamate receptor 8 (Rattus norvegicus) (UniProt P70579); assay: Maximal effect obtained with 1 mM of the drug expressed as percent of maxiaml effect of glutamate in rat at mGlu8a receptor expressed in HEK293 cells; format: functional, cell-based
[4] = molecular target: Metabotropic glutamate receptor 1 (Rattus norvegicus) (UniProt P23385); assay: Maximal effect obtained with 1 mM of the drug expressed as percent of maxiaml effect of glutamate in rat at mGlu1a receptor expressed in HEK293 cells; format: functional, cell-based
[5] = molecular target: Metabotropic glutamate receptor 2 (Rattus norvegicus, UniProt P31421); assay: Agonist activity in rat at mGlu2 receptor expressed in HEK293 cells; format: functional, cell-based
[6] = molecular target: Metabotropic glutamate receptor 1 (Rattus norvegicus, UniProt P23385); assay: Agonist activity in rat at mGlu1a receptor expressed in HEK293 cells; format: functional, cell-based
[7] = molecular target: Metabotropic glutamate receptor 2 (Rattus norvegicus) (UniProt P31421); assay: as §1; format: functional, cell-based
[8] = molecular target: T1, Metabotropic glutamate receptor 8; assay: Agonist activity in rat at Metabotropic glutamate receptor 8 expressed in HEK293 cells; format: functional, cell-based

T1 sequence (P70579 whole entry): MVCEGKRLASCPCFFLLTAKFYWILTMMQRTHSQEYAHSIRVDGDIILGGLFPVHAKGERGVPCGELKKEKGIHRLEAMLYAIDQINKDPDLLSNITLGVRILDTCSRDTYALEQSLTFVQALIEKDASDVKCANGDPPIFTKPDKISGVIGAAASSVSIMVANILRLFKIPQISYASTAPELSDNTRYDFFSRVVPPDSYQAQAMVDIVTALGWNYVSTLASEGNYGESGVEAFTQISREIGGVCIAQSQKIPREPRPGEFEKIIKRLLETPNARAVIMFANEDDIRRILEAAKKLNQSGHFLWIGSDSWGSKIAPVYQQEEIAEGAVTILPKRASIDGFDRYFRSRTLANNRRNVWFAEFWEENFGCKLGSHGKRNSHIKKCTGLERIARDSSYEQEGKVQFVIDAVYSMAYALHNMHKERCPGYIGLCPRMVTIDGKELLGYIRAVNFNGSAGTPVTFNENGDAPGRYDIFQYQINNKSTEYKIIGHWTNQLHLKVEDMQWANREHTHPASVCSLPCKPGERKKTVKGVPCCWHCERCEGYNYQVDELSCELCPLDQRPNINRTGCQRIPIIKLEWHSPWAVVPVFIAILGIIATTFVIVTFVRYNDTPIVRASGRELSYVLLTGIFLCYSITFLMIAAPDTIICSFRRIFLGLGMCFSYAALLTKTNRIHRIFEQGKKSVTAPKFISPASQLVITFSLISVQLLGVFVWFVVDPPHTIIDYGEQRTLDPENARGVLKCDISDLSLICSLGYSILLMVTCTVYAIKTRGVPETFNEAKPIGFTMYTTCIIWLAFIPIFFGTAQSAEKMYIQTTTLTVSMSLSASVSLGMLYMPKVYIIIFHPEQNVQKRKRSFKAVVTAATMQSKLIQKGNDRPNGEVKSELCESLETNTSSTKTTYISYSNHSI
Sequence of Metabotropic glutamate receptor 8 (Rattus norvegicus) (P70579 whole entry): as above
Sequence of Metabotropic glutamate receptor 1 (P23385 whole entry): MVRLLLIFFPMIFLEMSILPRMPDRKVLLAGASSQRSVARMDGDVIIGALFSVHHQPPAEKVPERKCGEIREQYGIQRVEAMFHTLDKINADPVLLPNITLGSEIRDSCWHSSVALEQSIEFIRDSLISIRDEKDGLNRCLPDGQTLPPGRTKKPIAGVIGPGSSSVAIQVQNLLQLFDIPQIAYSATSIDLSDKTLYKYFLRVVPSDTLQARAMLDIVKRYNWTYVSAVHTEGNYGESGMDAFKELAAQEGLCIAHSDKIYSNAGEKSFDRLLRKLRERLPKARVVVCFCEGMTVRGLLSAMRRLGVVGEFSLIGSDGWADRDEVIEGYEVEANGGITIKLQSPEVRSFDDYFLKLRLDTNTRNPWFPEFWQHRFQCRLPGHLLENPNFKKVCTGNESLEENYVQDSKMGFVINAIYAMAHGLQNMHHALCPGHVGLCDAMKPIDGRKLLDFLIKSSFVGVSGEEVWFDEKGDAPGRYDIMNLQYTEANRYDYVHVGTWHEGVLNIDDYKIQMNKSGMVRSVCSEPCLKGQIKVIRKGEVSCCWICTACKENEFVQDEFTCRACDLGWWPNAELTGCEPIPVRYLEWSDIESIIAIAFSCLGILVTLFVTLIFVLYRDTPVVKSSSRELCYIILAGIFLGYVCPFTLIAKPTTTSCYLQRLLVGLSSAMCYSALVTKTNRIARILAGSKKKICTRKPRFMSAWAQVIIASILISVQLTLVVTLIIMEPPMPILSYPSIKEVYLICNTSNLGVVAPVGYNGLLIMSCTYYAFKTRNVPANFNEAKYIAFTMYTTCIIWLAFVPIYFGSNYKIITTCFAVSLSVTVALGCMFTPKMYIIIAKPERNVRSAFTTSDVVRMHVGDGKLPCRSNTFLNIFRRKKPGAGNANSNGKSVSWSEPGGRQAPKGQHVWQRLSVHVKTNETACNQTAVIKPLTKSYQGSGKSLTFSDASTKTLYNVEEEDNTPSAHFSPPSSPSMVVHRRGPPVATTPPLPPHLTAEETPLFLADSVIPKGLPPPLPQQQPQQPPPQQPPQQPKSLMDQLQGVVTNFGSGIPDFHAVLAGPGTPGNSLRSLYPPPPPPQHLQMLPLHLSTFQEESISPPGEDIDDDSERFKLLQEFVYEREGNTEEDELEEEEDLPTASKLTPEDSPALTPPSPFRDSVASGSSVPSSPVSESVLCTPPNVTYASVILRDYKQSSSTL
Sequence of Metabotropic glutamate receptor 2 (P31421 whole entry): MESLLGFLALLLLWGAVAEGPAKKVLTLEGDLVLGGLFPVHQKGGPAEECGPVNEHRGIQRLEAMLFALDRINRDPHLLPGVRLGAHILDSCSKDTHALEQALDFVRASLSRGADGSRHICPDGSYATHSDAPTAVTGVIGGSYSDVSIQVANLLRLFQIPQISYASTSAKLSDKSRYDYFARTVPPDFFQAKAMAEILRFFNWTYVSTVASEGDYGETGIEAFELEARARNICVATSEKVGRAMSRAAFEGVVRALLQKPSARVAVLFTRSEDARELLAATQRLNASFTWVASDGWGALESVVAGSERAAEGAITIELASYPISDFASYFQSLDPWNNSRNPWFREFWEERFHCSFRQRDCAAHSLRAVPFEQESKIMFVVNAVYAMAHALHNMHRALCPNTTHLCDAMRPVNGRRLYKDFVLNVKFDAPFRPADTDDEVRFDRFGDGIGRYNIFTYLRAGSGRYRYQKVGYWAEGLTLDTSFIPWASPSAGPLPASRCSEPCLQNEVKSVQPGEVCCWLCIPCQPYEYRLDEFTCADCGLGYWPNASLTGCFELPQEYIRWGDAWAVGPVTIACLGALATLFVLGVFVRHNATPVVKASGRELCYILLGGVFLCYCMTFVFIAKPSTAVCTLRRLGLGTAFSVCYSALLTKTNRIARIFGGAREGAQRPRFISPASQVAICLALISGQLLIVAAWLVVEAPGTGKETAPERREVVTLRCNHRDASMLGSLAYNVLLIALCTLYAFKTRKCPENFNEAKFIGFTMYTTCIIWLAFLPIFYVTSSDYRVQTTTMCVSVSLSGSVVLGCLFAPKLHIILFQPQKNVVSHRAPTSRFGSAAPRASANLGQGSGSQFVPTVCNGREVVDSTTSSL
Sequence of Metabotropic glutamate receptor 1 (Rattus norvegicus) (P23385 19-1199 limits assumed): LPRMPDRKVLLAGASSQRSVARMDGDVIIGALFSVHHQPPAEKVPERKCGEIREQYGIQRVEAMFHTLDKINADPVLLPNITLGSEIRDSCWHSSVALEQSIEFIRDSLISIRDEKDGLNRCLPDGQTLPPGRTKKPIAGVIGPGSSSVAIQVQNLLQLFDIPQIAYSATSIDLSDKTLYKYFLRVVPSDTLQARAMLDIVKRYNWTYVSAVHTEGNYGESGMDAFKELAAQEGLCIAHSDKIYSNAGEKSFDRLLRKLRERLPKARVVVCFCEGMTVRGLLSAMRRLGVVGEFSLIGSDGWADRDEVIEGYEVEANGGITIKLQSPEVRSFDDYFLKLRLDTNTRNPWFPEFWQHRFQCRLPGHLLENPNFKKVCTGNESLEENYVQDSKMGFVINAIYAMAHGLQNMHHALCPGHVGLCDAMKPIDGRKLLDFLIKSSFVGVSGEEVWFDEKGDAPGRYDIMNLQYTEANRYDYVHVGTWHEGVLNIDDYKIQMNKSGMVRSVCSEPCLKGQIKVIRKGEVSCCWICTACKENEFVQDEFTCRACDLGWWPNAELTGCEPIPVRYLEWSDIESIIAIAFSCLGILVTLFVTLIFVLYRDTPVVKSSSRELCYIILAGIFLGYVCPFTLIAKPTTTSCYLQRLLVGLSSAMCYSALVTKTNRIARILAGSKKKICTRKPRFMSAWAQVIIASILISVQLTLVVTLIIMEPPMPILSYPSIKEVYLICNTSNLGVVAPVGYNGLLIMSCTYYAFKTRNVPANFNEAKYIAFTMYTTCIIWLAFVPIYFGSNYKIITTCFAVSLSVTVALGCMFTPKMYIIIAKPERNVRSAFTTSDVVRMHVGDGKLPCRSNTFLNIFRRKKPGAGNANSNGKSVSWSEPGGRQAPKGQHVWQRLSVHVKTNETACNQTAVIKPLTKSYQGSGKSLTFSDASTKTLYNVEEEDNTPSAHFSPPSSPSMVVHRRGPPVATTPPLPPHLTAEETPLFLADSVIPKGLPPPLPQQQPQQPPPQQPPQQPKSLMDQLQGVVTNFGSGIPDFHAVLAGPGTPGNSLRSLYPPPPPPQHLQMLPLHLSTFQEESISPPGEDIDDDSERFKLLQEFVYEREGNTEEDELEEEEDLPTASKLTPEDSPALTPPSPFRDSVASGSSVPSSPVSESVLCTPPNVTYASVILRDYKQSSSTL
Sequence of Metabotropic glutamate receptor 2 (Rattus norvegicus) (P31421 19-872 limits assumed): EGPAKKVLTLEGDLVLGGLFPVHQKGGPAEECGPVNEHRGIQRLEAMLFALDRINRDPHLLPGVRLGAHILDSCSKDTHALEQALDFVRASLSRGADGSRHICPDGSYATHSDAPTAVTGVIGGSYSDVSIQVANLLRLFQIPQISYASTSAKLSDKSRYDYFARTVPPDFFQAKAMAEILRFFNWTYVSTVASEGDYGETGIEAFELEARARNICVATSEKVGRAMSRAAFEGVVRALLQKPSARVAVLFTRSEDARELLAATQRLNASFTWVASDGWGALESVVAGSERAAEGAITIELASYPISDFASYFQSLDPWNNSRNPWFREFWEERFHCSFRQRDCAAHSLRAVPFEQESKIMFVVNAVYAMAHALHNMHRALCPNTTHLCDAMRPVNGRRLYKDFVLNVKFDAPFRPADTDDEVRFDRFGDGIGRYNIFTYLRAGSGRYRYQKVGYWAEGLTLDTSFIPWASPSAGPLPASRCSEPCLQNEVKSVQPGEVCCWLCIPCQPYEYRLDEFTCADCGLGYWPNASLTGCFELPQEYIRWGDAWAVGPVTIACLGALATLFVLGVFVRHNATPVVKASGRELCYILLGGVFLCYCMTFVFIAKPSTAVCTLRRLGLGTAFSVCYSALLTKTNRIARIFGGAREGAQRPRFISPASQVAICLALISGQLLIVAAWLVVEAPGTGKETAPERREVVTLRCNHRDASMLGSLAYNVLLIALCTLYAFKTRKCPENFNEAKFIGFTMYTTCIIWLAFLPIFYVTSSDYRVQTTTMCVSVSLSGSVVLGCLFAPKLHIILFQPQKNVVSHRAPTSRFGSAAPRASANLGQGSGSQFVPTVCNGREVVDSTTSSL

Rmax [1] [%]	EC50 [2] [µM]	Rmax [3] [%]	Rmax [4] [%]	EC50 [5] [µM]	EC50 [6] [µM]	Rmax [7] [%]	EC50 [8] [µM]	SMILES
52	69	54	70	161	373	–	–	N[C@@H](C[C@@H](O)C(=O)O)C(=O)O
–	53	94	95	137	11	60	–	N[C@@H](C[C@H](O)C(=O)O)C(=O)O
–	–	–	–	–	–	–	8	N[C@@H](CCC(=O)O)C(=O)O [GLUTAMIC ACID]
